Literature values as cited in US11542295B2, “Use of 20-hydroxyecdysone and the derivatives thereof in the treatment of myopathies” (BIOPHYTIS, priority 2017, dated 2023).

Tests used:
[1] = system: C2C12 mouse myotubes; settings: C2C12 mouse myotubes in vitro; cited from earlier work
[2] = system: young athletes; settings: young athletes (Simakin et al., 1988); cited from earlier work
[3] = system: muscles of rats; settings: rats in vivo; cited from earlier work

## CC(C)(O)CC[C@@H](O)[C@](C)(O)[C@H]1CC[C@@]2(O)C3=CC(=O)[C@@H]4C[C@@H](O)[C@@H](O)C[C@]4(C)[C@H]3CC[C@]12C [20-hydroxyecdysone]
[1]
  effects on protein syntheses: stimulant effects
[2]
  muscle mass: increases
[3]
  effects on protein syntheses in muscles: stimulant effects
